# Measurements taken from ChEMBL document CHEMBL1143353, “Pyrazolo[1,5-a]-1,3,5-triazine as a purine bioisostere: access to potent cyclin-dependent kinase inhibitor (R)-roscovitine analogue” (J Med Chem, 2009).
# Assays:
# [1] = test system: HEK-293T; assay: Antiproliferative activity against human 293T cells after 72 hrs by ViaLight assay; type: functional, cell-based
# [2] = test system: HT-29; assay: cells; conditions: Homo sapiens, HT-29, 72 h
# Description: Antiproliferative activity against human HT29 cells after 72 hrs by ViaLight assay
# [3] = test system: TK-10; assay: cells; conditions: Homo sapiens, TK-10, 72 h
# Description: Antiproliferative activity against human TK10 cells after 72 hrs by ViaLight assay
# [4] = test system: LOX IMVI; assay: cells; conditions: Homo sapiens, 72 h
# Description: Antiproliferative activity against human LOXIMVI cells after 72 hrs by ViaLight assay
# [5] = cells; conditions: Homo sapiens, RPMI8266, 72 h
# Description: Antiproliferative activity against human RPMI8266 cells after 72 hrs by ViaLight assay
# [6] = test system: U-937; assay: Antiproliferative activity against human U937 cells after 72 hrs by ViaLight assay; type: functional, cell-based
# [7] = test system: SNB-19; assay: cells; conditions: Homo sapiens, SNB-19, 72 h
# Description: Antiproliferative activity against human SNB19 cells after 72 hrs by ViaLight assay
# [8] = cells; conditions: Homo sapiens, Hs-578T, 72 h
# Description: Antiproliferative activity against human Hs 578T cells after 72 hrs by ViaLight assay
# [9] = test system: MOLT-4; assay: cells; conditions: Homo sapiens, MOLT-4, 72 h
# Description: Antiproliferative activity against human MOLT4 cells after 72 hrs by ViaLight assay
# [10] = test system: HEK293; assay: Antiproliferative activity against human HEK293 cells after 48 hrs by MTS reduction assay; type: cell-based; conditions: HEK293, 48 h
# [11] = test system: HOP-62; assay: cells; conditions: Homo sapiens, HOP-62, 72 h
# Description: Antiproliferative activity against human HOP62 cells after 72 hrs by ViaLight assay
# [12] = test system: KM12; assay: cells; conditions: Homo sapiens, KM12, 72 h
# Description: Antiproliferative activity against human KM12 cells after 72 hrs by ViaLight assay
# [13] = test system: SF-295; assay: cells; conditions: Homo sapiens, SF-295, 72 h
# Description: Antiproliferative activity against human SF295 cells after 72 hrs by ViaLight assay
# [14] = cells; conditions: Homo sapiens, HL-60, 72 h
# Description: Antiproliferative activity against human HL60(TB) cells after 72 hrs by ViaLight assay
# [15] = test system: HCT-116; assay: cells; conditions: Homo sapiens, HCT-116, 72 h
# Description: Antiproliferative activity against human HCT116 cells after 72 hrs by ViaLight assay
# [16] = test system: HCT-15; assay: cells; conditions: Homo sapiens, HCT-15, 72 h
# Description: Antiproliferative activity against human HCT15 cells after 72 hrs by ViaLight assay
# [17] = test system: NCI-H522; assay: cells; conditions: Homo sapiens, NCI-H522, 72 h
# Description: Antiproliferative activity against human NCI-H522 cells after 72 hrs by ViaLight assay
# [18] = test system: CCRF-CEM; assay: cells; conditions: Homo sapiens, 72 h
# Description: Antiproliferative activity against human CCRF-CEM cells after 72 hrs by ViaLight assay
# [19] = test system: MDA-MB-435; assay: cells; conditions: Homo sapiens, MDA-MB-435, 72 h
# Description: Antiproliferative activity against human MDA-MB-435 cells after 72 hrs by ViaLight assay
# [20] = test system: A498; assay: cells; conditions: Homo sapiens, A498, 72 h
# Description: Antiproliferative activity against human A498 cells after 72 hrs by ViaLight assay
# [21] = test system: HCC 2998; assay: cells; conditions: Homo sapiens, HCC 2998, 72 h
# Description: Antiproliferative activity against human HCC2998 cells after 72 hrs by ViaLight assay
# [22] = test system: HOP-92; assay: cells; conditions: Homo sapiens, HOP-92, 72 h
# Description: Antiproliferative activity against human HOP92 cells after 72 hrs by ViaLight assay
# [23] = test system: RXF 393; assay: cells; conditions: Homo sapiens, RXF 393, 72 h
# Description: Antiproliferative activity against human RFX393 cells after 72 hrs by ViaLight assay
# [24] = test system: SK-MEL-28; assay: Antiproliferative activity against human SK-MEL-28 cells after 72 hrs by ViaLight assay; type: functional; conditions: SK-MEL-28, 72 h
# [25] = test system: NCI-H226; assay: cells; conditions: Homo sapiens, NCI-H226, 72 h
# Description: Antiproliferative activity against human NCI-H226 cells after 72 hrs by ViaLight assay
# [26] = test system: A549; assay: cells; conditions: Homo sapiens, A549, 72 h
# Description: Antiproliferative activity against human A549 cells after 72 hrs by ViaLight assay
# [27] = test system: 786-0; assay: cells; conditions: Homo sapiens, 786-0, 72 h
# Description: Antiproliferative activity against human 786-0 cells after 72 hrs by ViaLight assay
# [28] = test system: OVCAR-3; assay: cells; conditions: Homo sapiens, OVCAR-3, 72 h
# Description: Antiproliferative activity against human OVCAR-3 cells after 72 hrs by ViaLight assay
# [29] = test system: U-251; assay: cells; conditions: Homo sapiens, U-251, 72 h
# Description: Antiproliferative activity against human U251 cells after 72 hrs by ViaLight assay
# [30] = test system: DU-145; assay: cells; conditions: Homo sapiens, DU-145, 72 h
# Description: Antiproliferative activity against human DU145 cells after 72 hrs by ViaLight assay
compound,measurement,setting,value
CC[C@H](CO)Nc1nc(NCc2ccccc2)n2ncc(C(C)C)c2n1,Activity,[1],Dose-dependent effect
same,GI50,[2],2 µM
same,TGI,[2],15.5 µM
same,CC50,[2]; read-out: LC50,> 100 µM
same,GI50,[2]; read-out: pGI50 (converted),2 µM
same,CC50,[2]; read-out: pLC50 (converted),100 µM
same,TGI,[2]; read-out: pTGI,15.5 µM
same,GI50,[3],2 µM
same,TGI,[3],10.9 µM
same,CC50,[3]; read-out: LC50,> 100 µM
same,GI50,[3]; read-out: pGI50 (converted),2 µM
same,CC50,[3]; read-out: pLC50 (converted),100 µM
same,TGI,[3]; read-out: pTGI,11 µM
same,GI50,[4],1.07 µM
same,TGI,[4],10.3 µM
same,CC50,[4]; read-out: LC50,34.4 µM
same,GI50,[4]; read-out: pGI50 (converted),1.07 µM
same,CC50,[4]; read-out: pLC50 (converted),34.7 µM
same,TGI,[4]; read-out: pTGI,10.2 µM
same,GI50,[5],2.23 µM
same,TGI,[5],6.93 µM
same,CC50,[5]; read-out: LC50,> 100 µM
same,GI50,[5]; read-out: pGI50 (converted),2.24 µM
same,CC50,[5]; read-out: pLC50 (converted),100 µM
same,TGI,[5]; read-out: pTGI,6.92 µM
same,Activity,[6],Dose-dependent effect
same,GI50,[7],1.44 µM
same,TGI,[7],12.3 µM
same,CC50,[7]; read-out: LC50,> 100 µM
same,GI50,[7]; read-out: pGI50 (converted),1.15 µM
same,CC50,[7]; read-out: pLC50 (converted),100 µM
same,TGI,[7]; read-out: pTGI,12.3 µM
same,GI50,[8],1.59 µM
same,TGI,[8],6.16 µM
same,CC50,[8]; read-out: LC50,> 100 µM
same,GI50,[8]; read-out: pGI50 (converted),1.58 µM
same,CC50,[8]; read-out: pLC50 (converted),100 µM
same,TGI,[8]; read-out: pTGI,6.17 µM
same,GI50,[9],2.18 µM
same,TGI,[9],9.45 µM
same,CC50,[9]; read-out: LC50,> 100 µM
same,GI50,[9]; read-out: pGI50 (converted),2.19 µM
same,CC50,[9]; read-out: pLC50 (converted),100 µM
same,TGI,[9]; read-out: pTGI,9.55 µM
same,IC50,[10],7.6 µM
same,GI50,[11],2.1 µM
same,TGI,[11],8.72 µM
same,CC50,[11]; read-out: LC50,> 100 µM
same,GI50,[11]; read-out: pGI50 (converted),2.09 µM
same,CC50,[11]; read-out: pLC50 (converted),100 µM
same,TGI,[11]; read-out: pTGI,1.1 µM
same,GI50,[12],0.71 µM
same,TGI,[12],2.79 µM
same,CC50,[12]; read-out: LC50,9.3 µM
same,GI50,[12]; read-out: pGI50 (converted),0.708 µM
same,CC50,[12]; read-out: pLC50 (converted),9.77 µM
same,TGI,[12]; read-out: pTGI,2.82 µM
same,GI50,[13],0.81 µM
same,TGI,[13],4.74 µM
same,GI50,[13]; read-out: pGI50 (converted),0.813 µM
same,TGI,[13]; read-out: pTGI,4.79 µM
same,GI50,[14],0.41 µM
same,TGI,[14],2.68 µM
same,CC50,[14]; read-out: LC50,> 100 µM
same,GI50,[14]; read-out: pGI50 (converted),0.407 µM
same,CC50,[14]; read-out: pLC50 (converted),100 µM
same,TGI,[14]; read-out: pTGI,2.69 µM
same,GI50,[15],0.51 µM
same,TGI,[15],15 µM
same,CC50,[15]; read-out: LC50,> 100 µM
same,GI50,[15]; read-out: pGI50 (converted),0.513 µM
same,CC50,[15]; read-out: pLC50 (converted),100 µM
same,TGI,[15]; read-out: pTGI,15.1 µM
same,GI50,[16],0.87 µM
same,TGI,[16],10.5 µM
same,CC50,[16]; read-out: LC50,> 100 µM
same,GI50,[16]; read-out: pGI50 (converted),8.91 µM
same,CC50,[16]; read-out: pLC50 (converted),100 µM
same,TGI,[16]; read-out: pTGI,10.5 µM
same,GI50,[17],1.46 µM
same,TGI,[17],8.98 µM
same,CC50,[17]; read-out: LC50,> 100 µM
same,GI50,[17]; read-out: pGI50 (converted),1.45 µM
same,CC50,[17]; read-out: pLC50 (converted),100 µM
same,TGI,[17]; read-out: pTGI,8.91 µM
same,GI50,[18],0.65 µM
same,TGI,[18],9.26 µM
same,CC50,[18]; read-out: LC50,> 100 µM
same,GI50,[18]; read-out: pGI50 (converted),0.646 µM
same,CC50,[18]; read-out: pLC50 (converted),100 µM
same,TGI,[18]; read-out: pTGI,9.33 µM
same,GI50,[19],2.06 µM
same,TGI,[19],10.1 µM
same,CC50,[19]; read-out: LC50,41.4 µM
same,GI50,[19]; read-out: pGI50 (converted),2.09 µM
same,CC50,[19]; read-out: pLC50 (converted),41.7 µM
same,TGI,[19]; read-out: pTGI,10 µM
same,GI50,[20],1.25 µM
same,TGI,[20],3.44 µM
same,CC50,[20]; read-out: LC50,9.47 µM
same,GI50,[20]; read-out: pGI50 (converted),1.12 µM
same,CC50,[20]; read-out: pLC50 (converted),9.55 µM
same,TGI,[20]; read-out: pTGI,3.31 µM
same,GI50,[21],1.2 µM
same,TGI,[21],3.27 µM
same,CC50,[21]; read-out: LC50,8.96 µM
same,GI50,[21]; read-out: pGI50 (converted),1.2 µM
same,CC50,[21]; read-out: pLC50 (converted),8.71 µM
same,TGI,[21]; read-out: pTGI,3.24 µM
same,GI50,[22],1.67 µM
same,TGI,[22],7.1 µM
same,CC50,[22]; read-out: LC50,> 100 µM
same,GI50,[22]; read-out: pGI50 (converted),1.66 µM
same,CC50,[22]; read-out: pLC50 (converted),100 µM
same,TGI,[22]; read-out: pTGI,7.08 µM
same,GI50,[23],0.25 µM
same,TGI,[23],0.79 µM
same,CC50,[23]; read-out: LC50,4.25 µM
same,GI50,[23]; read-out: pGI50 (converted),0.251 µM
same,CC50,[23]; read-out: pLC50 (converted),4.27 µM
same,TGI,[23]; read-out: pTGI,0.794 µM
same,GI50,[24]; read-out: GI50,1.16 µM
same,CC50,[24]; read-out: LC50 (the source's name),16.9 µM
same,TGI,[24]; read-out: TGI,3.82 µM
same,GI50,[24]; read-out: pGI50 (converted),1.15 µM
same,CC50,[24]; read-out: pLC50 (the source's name) (converted),17 µM
same,TGI,[24]; read-out: pTGI (converted),3.8 µM
same,GI50,[25],1.84 µM
same,TGI,[25],10.1 µM
same,CC50,[25]; read-out: LC50,> 100 µM
same,GI50,[25]; read-out: pGI50 (converted),1.86 µM
same,CC50,[25]; read-out: pLC50 (converted),100 µM
same,TGI,[25]; read-out: pTGI,10.5 µM
same,GI50,[26],1.58 µM
same,TGI,[26],41.4 µM
same,CC50,[26]; read-out: LC50,> 100 µM
same,GI50,[26]; read-out: pGI50 (converted),2.51 µM
same,CC50,[26]; read-out: pLC50 (converted),100 µM
same,TGI,[26]; read-out: pTGI,41.7 µM
same,GI50,[27],1.98 µM
same,TGI,[27],10.7 µM
same,CC50,[27]; read-out: LC50,> 100 µM
same,GI50,[27]; read-out: pGI50 (converted),1.86 µM
same,CC50,[27]; read-out: pLC50 (converted),100 µM
same,TGI,[27]; read-out: pTGI,0.135 µM
same,GI50,[28],1.15 µM
same,TGI,[28],4.6 µM
same,CC50,[28]; read-out: LC50,42.4 µM
same,GI50,[28]; read-out: pGI50 (converted),1.45 µM
same,CC50,[28]; read-out: pLC50 (converted),42.7 µM
same,TGI,[28]; read-out: pTGI,4.57 µM
same,GI50,[29],1.4 µM
same,TGI,[29],10.5 µM
same,CC50,[29]; read-out: LC50,> 100 µM
same,GI50,[29]; read-out: pGI50 (converted),1.41 µM
same,CC50,[29]; read-out: pLC50 (converted),100 µM
same,TGI,[29]; read-out: pTGI,10.5 µM
same,GI50,[30],1.3 µM
same,TGI,[30],9.52 µM
same,CC50,[30]; read-out: LC50,> 100 µM
same,GI50,[30]; read-out: pGI50 (converted),2.63 µM
same,CC50,[30]; read-out: pLC50 (converted),100 µM
same,TGI,[30]; read-out: pTGI,9.55 µM
